What all share (format): functional
The subject of assay [1] is Candida albicans. The assay is described as follows: Antifungal activity against Candida albicans SC5314 after 24 hrs by micro-broth dilution method. Particulars: SC5314, 24 h. (In general: Dilution methods test growth across graded concentrations, often in twofold steps.)
Assay [2] deals with Candida albicans. The assay is described as follows: Antifungal activity against Candida albicans Y0109 after 24 hrs by micro-broth dilution method. Particulars: Y0109, 24 h.
The next assay has as its system Candida tropicalis. Nature of the assay: Antifungal activity against Candida tropicalis by micro-broth dilution method.
The test system of another assay is Candida parapsilosis. The assay is described as follows: Antifungal activity against Candida parapsilosis by micro-broth dilution method. Conditions: Lodderomyces parapsilosis.
A further assay has as its system Kluyveromyces marxianus. Nature of the assay: Antifungal activity against Candida kefyr by micro-broth dilution method.
For another assay, the system named is Cryptococcus neoformans. The assay is described as follows: Antifungal activity against Cryptococcus neoformans BLS108 after 72 hrs by micro-broth dilution method. Particulars: BLS108, 72 h.
For a further assay, the system named is Trichophyton rubrum. Nature of the assay: Antifungal activity against Trichophyton rubrum by micro-broth dilution method.
For the next assay, the system named is Aspergillus fumigatus. Nature of the assay: Antifungal activity against Aspergillus fumigatus by broth microdilution method.

Converted amounts (≈) assume the structure as drawn. Some results are limits rather than exact numbers.

The term MIC80 denotes the lowest concentration that inhibits either 80% of growth or 80% of the strains tested, depending on the study. The low end stands for greater potency, the high end for weaker potency. With `O=c1n(-c2ccccc2)cnn1CC(O)(Cn1cncn1)c1ccc(F)cc1F` (racemic), the MIC80 is 1 µg/mL (≈ 2.51 µM) with Candida albicans [1]; 0.25 µg/mL (≈ 0.628 µM) in the assay with Candida albicans [2]; 0.25 µg/mL (≈ 0.628 µM) in the assay with Candida tropicalis; 4 µg/mL (≈ 10 µM) against Candida parapsilosis; 0.25 µg/mL (≈ 0.628 µM) in the assay on Kluyveromyces marxianus; 64 µg/mL (≈ 161 µM) in the assay on Cryptococcus neoformans. Also, the MIC80 is 16 µg/mL (≈ 40.2 µM) with Trichophyton rubrum and over 64 µg/mL in the assay with Aspergillus fumigatus.

With `O=c1n(-c2ccc(F)cc2)cnn1CC(O)(Cn1cncn1)c1ccc(F)cc1F` (racemic), the MIC80 with Candida albicans [1] was 1 µg/mL (≈ 2.4 µM); against Candida albicans [2], 1 µg/mL (≈ 2.4 µM); in the assay with Candida tropicalis, 0.25 µg/mL (≈ 0.6 µM); against Candida parapsilosis, 4 µg/mL (≈ 9.61 µM); against Kluyveromyces marxianus, 0.25 µg/mL (≈ 0.6 µM); against Cryptococcus neoformans it was over 64 µg/mL. Besides, the figures for the MIC80 against Trichophyton rubrum and against Aspergillus fumigatus were 64 µg/mL (≈ 154 µM) and over 64 µg/mL, respectively.

Regarding `O=c1n(-c2ccc(Cl)cc2)cnn1CC(O)(Cn1cncn1)c1ccc(F)cc1F` (racemic), the MIC80 against Candida albicans [1] was 0.0625 µg/mL (≈ 0.144 µM); with Candida albicans [2] it was 0.0625 µg/mL (≈ 0.144 µM); against Candida tropicalis, 0.0625 µg/mL (≈ 0.144 µM); against Candida parapsilosis, 1 µg/mL (≈ 2.31 µM); in the assay on Kluyveromyces marxianus it was 0.0156 µg/mL (≈ 0.036 µM); in the assay on Cryptococcus neoformans it was 64 µg/mL (≈ 148 µM). The MIC80 with Trichophyton rubrum is 16 µg/mL (≈ 37 µM); in the assay with Aspergillus fumigatus, over 64 µg/mL.

Take `O=c1n(-c2ccccc2Cl)cnn1CC(O)(Cn1cncn1)c1ccc(F)cc1F` (racemic): the MIC80 stood at 1 µg/mL (≈ 2.31 µM) in the assay on Candida albicans [1]; 1 µg/mL (≈ 2.31 µM) against Candida albicans [2]; 1 µg/mL (≈ 2.31 µM) against Candida tropicalis; 16 µg/mL (≈ 37 µM) in the assay on Candida parapsilosis; 0.25 µg/mL (≈ 0.578 µM) against Kluyveromyces marxianus; 64 µg/mL (≈ 148 µM) in the assay on Cryptococcus neoformans. Moreover, the results for the MIC80 with Trichophyton rubrum and against Aspergillus fumigatus were 64 µg/mL (≈ 148 µM) and over 64 µg/mL, respectively.

Regarding `O=c1n(-c2ccc(Br)cc2)cnn1CC(O)(Cn1cncn1)c1ccc(F)cc1F` (racemic), the MIC80 was 1 µg/mL (≈ 2.1 µM) against Candida albicans [1]; 0.156 µg/mL (≈ 0.327 µM) against Candida albicans [2]; 0.0625 µg/mL (≈ 0.131 µM) with Candida tropicalis; 1 µg/mL (≈ 2.1 µM) against Candida parapsilosis; 0.0156 µg/mL (≈ 0.0327 µM) with Kluyveromyces marxianus; 16 µg/mL (≈ 33.5 µM) with Cryptococcus neoformans. In addition, the figures for the MIC80 against Trichophyton rubrum and against Aspergillus fumigatus were 16 µg/mL (≈ 33.5 µM) and over 64 µg/mL, respectively.

Take `Cc1ccc(-n2cnn(CC(O)(Cn3cncn3)c3ccc(F)cc3F)c2=O)cc1` (racemic): the MIC80 with Candida albicans [1] is 0.25 µg/mL (≈ 0.606 µM); against Candida albicans [2] it was 1 µg/mL (≈ 2.42 µM); in the assay on Candida tropicalis, 0.25 µg/mL (≈ 0.606 µM); in the assay with Candida parapsilosis it was 4 µg/mL (≈ 9.7 µM); with Kluyveromyces marxianus, 0.25 µg/mL (≈ 0.606 µM); against Cryptococcus neoformans, 64 µg/mL (≈ 155 µM). The MIC80 in the assay on Trichophyton rubrum is 64 µg/mL (≈ 155 µM); in the assay with Aspergillus fumigatus it was over 64 µg/mL.

Regarding `COc1ccc(-n2cnn(CC(O)(Cn3cncn3)c3ccc(F)cc3F)c2=O)cc1` (racemic), the MIC80 was determined as 1 µg/mL (≈ 2.33 µM) against Candida albicans [1]; 0.0625 µg/mL (≈ 0.146 µM) against Candida albicans [2]; 0.0625 µg/mL (≈ 0.146 µM) with Candida tropicalis; 1 µg/mL (≈ 2.33 µM) in the assay with Candida parapsilosis; 0.0625 µg/mL (≈ 0.146 µM) against Kluyveromyces marxianus; 16 µg/mL (≈ 37.3 µM) in the assay on Cryptococcus neoformans. Besides, the MIC80 was 16 µg/mL (≈ 37.3 µM) in the assay on Trichophyton rubrum and over 64 µg/mL in the assay with Aspergillus fumigatus.

Turning to `N#Cc1ccc(-n2cnn(CC(O)(Cn3cncn3)c3ccc(F)cc3F)c2=O)cc1` (racemic), the MIC80 is 1 µg/mL (≈ 2.36 µM) in the assay with Candida albicans [1]; 1 µg/mL (≈ 2.36 µM) against Candida albicans [2]; 4 µg/mL (≈ 9.45 µM) with Candida tropicalis; 1 µg/mL (≈ 2.36 µM) in the assay on Candida parapsilosis; 16 µg/mL (≈ 37.8 µM) with Kluyveromyces marxianus; over 64 µg/mL against Cryptococcus neoformans. The MIC80 was 64 µg/mL (≈ 151 µM) against Trichophyton rubrum and over 64 µg/mL in the assay on Aspergillus fumigatus.

Regarding `N#Cc1cccc(-n2cnn(CC(O)(Cn3cncn3)c3ccc(F)cc3F)c2=O)c1` (racemic), the MIC80 against Candida albicans [1] stood at 0.00024 µg/mL (≈ 0.000567 µM); against Candida albicans [2] it was 0.00024 µg/mL (≈ 0.000567 µM); in the assay with Candida tropicalis it was 0.00024 µg/mL (≈ 0.000567 µM); in the assay with Candida parapsilosis, 0.00024 µg/mL (≈ 0.000567 µM); against Kluyveromyces marxianus, 0.00024 µg/mL (≈ 0.000567 µM); in the assay with Cryptococcus neoformans, 0.25 µg/mL (≈ 0.59 µM). Moreover, the MIC80 was 4 µg/mL (≈ 9.45 µM) in the assay on Trichophyton rubrum and over 64 µg/mL against Aspergillus fumigatus.

In the case of `O=c1n(-c2ccc(Cl)c(Cl)c2)cnn1CC(O)(Cn1cncn1)c1ccc(F)cc1F` (racemic), the MIC80 with Candida albicans [1] was 4 µg/mL (≈ 8.56 µM); against Candida albicans [2], 16 µg/mL (≈ 34.2 µM); in the assay with Candida tropicalis it was 64 µg/mL (≈ 137 µM); against Candida parapsilosis, 16 µg/mL (≈ 34.2 µM); against Kluyveromyces marxianus, 16 µg/mL (≈ 34.2 µM); with Cryptococcus neoformans it was 0.25 µg/mL (≈ 0.535 µM). Also, the MIC80 against Trichophyton rubrum and with Aspergillus fumigatus was over 64 µg/mL in each case.

Values taken from ChEMBL document CHEMBL1795319, “Design, synthesis and antifungal evaluation of 1-(2-(2,4-difluorophenyl)-2-hydroxy-3-(1H-1,2,4-triazol-1-yl)propyl)-1H-1,2,4-triazol-5(4H)-one” (2011).
